Data from patent publication US6664231B1, “Anti-fungal peptides” (priority 1993, dated 2003).
In brackets after ≈: the same amount, converted by molar mass. Square brackets hold non-standard residues; d marks the D form. Peptide text beside a SMILES is read from it. 1Nal = N[C@@H](Cc1cccc2ccccc12)C(=O)O

What was measured:
[1] = tested on: C. albicans (CA-1, Strain SLU-1); assay: Radial diffusion assay; assay type: cell-based, Candida albicans; settings: pmoles of peptide added to well to achieve a 30 mm^2 zone, PROBIT analysis, crude or purified (P′) peptide
Outline: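 Peptides, serially diluted 2-fold in D-PBS (top ~1 mg/mL), diffused 3 h at 37° C into pH 7.4 phosphate-buffered agarose seeded with 1×10^6 CFU/mL yeast, before overnight growth under a 6% Sabouraud overlayer. Net inhibition zones measured after Coomassie staining; PROBIT fit of log pmol vs area gave pmol for 30 mm^2.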

[2] = in vitro; assay type: in vitro ADME, rat or human serum; settings: half-life of peptide in serum as detected by HPLC analysis; for half-life at 0.5 mg/mL: serum, read-out: HPLC Peptide in Serum t ½ (converted)
Description: (§1) For these serum stability experiments, peptides were prepared by solid phase peptide sythesis and purified to 94% or greater purity as described in Example 1. Blood was collected from metaphane anesthesized rats by aortic bleed into Vacutainer™ tubes and allowed to clot at room temperature for approximately 30 minutes, then centrifuged at 3000 rpm (about 1000×g) for 10 minutes at room temperature and the serum aspirated. In addition, frozen human serum (North American Biologics, Inc., Miami, Fla., cat. no. 2140, lot no. 94115) was thawed at room temperature and filtered through a 0.45 μm membrane before use.
(§2) A 1 mg/mL solution of an exemplary XMP peptide to be tested was added to an equal volume of either rat or human serum described above and maintained at 37° C. At 0, 1, 2, and 4 hours, 100 μL were removed and processed by solid phase extraction for HPLC analysis as follows. Serum samples were prepared for HPLC using C-18 Sep-Pak cartridges (1 mL cartridge with 100 mg of sorbent, Waters Corp., Milford, Mass.). One hundred μL of serum sample were added to an equal volume of 1% TFA and mixed for 30 seconds on a Vortex mixer. The sample was then applied to a C-18 Sep-Pak cartridge that had been conditioned by washing with 1 mL of methanol followed by 1 mL Milli-Q water. Weakly reed components were eluted by washing with 1 mL of 0. 1% TFA. The bound peptide was eluted with two volumes of 250 μL 80% acetonitrile/0.065% TFA.
The material eluted from the Sep-Pak cartridge was analyzed on a Michrom Ultaafast Microprotein Analyzer equipped with a 150 mm×1 mm, 5μ particle, 300 Å pore C-8 Zorbax column. The column oven was set to 40° C., the flow rate was 100 μL/minute, and injection volumes were typically 5-10 μL. HPLC was performed using 5% acetonitrile/0.1% TFA in water as mobile phase A, and 80% acetonitrile/0.065% TFA as mobile phase B. The eluate was monitored spectiophotometrically at 214 nm. Peptide standards were dissolved in mobile phase A at 0. 1 mg/mL. The gradient was 25-35% B/10 minutes followed by a 5 minute wash step of 100% B and reequilibration at 25% B for 10 minutes.

[3] = tested on: Candida albicans SLU-1 strain; assay: Serum stability, anti-fungal activity after serum incubation by radial diffusion bioassay; assay type: in vitro ADME, rat or human serum
Description: as §1, §2
(§3) The peptides identified and purified after serum incubation as described above were subjected to N-terminal peptide sequencing performed on an Applied Biosystems Model 477A/120A sequencer and to electrospray ionization mass spectrometry (ESI/MS) performed using a VG Biotech Bio-Q Mass Spectrometer. In addition, the peptides identified and purified after serum incubation as described above were also tested for their anti-fungal activity in a radial diffusion bioassay with Candida albicans SLU-1 strain as described in Example 2.

[4] = tested on: C. albicans designated CA-1, Strain SLU-1; settings: designated CA-1, Strain SLU-1, 18 h
Description: In each broth assay screening procedure, a colony of C. albicans designated CA-1, Strain SLU-1 that was received from the laboratories of G. Matuschak and A. Lechner, St. Louis University Hospital, St. Louis, Mo., where the strain was maintained, was inoculated into a tube containing 5 mL Sabouraud Dextrose broth (2% dextrose, 1% neopeptone) and incubated overnight at 37° C. with shaking. The overnight culture was diluted 1:50 into 5 mL of fresh broth and incubated for 3 hours at 37° C. Organisms were pelleted by centrifugation in a Beckman J-6M centrifuge for 5 minutes at 3000 rpm (1500×g) and the pellets were resuspended in 5 mL phosphate buffered saline (PBS) and the optical density at 570 nm was determined. On the basis of the determination that one OD unit equals 3×10^7 colony forming units/mL, yeast cells were diluted to 2×10^6 cells/mL in Sabouraud Dextrose broth.
Domain III peptides derived from or based on BPI to be screened were originally constituted in Dulbecco's-PBS, were diluted to 100 μg/mL in broth and were serially diluted 2-fold into wells of a 96 well sterile, flat bottom, non-pyrogenic tissue culture plate (Costar, Cambridge, Mass.). All assays were performed in triplicate. 2×10^5 organisms were added at 100 μl per well; final volume was 200 μL/well; the plate was incubated on a shaker at 37° C. for 18 hours; and the optical densities for each well were read at 590 nm. […] The broth assay data may be set out in terms of minimum inhibitory concentration (MIC), i.e. the lowest concentration required to reduce the optical density at 590 nm to below 0.1.

[5] = tested on: Candida albicans SLU-1; assay: Radial diffusion assay (Example 3), wild type strain; assay type: cell-based; settings: FIG. 2A
Description: (§4) For the radial diffusion assays, Candida albicans SLU-1 were grown as described above and SLU-2G were grown overnight in Sabouraud dextrose broth supplemented with 10 μg/mL amphotericin B and 5 μg/mL ceftriaxone at 37° C. Cultures were diluted 1:25 into fresh, unsupplemented broth and allowed to grow for 5 hours at 37° C. Cells were pelleted at 1,500×g for 5 minutes at 4° C. Supernatant was decanted and replaced with 5 mL of 10 mM phosphate buffer, pH 7.4. After centrifugation the cell pellets were resuspended with 5 mL phosphate buffer for an OD570 determination. One OD570 for SLU-1 cells was 3×10^7 CFU/mL and for SLU-2G cells was 5×10^6 CFU/mL.
(§5) Cells were added to 10 mL of molten, cooled (˜45° C.) underlayer agarose to a concentration of 1×10^6/mL and the suspension was poured into a level square petri plate with gentle rocking to allow even distribution and solidification to a uniform thickness of about 1 mm. Wells were cut into the hardened agarose with a sterilize, 3 mm diameter punch with vacuum.
Peptides were two-fold serially diluted with DPBS from a starting concentration of approximately 1 mg/mL. Amphotericin B and nystatin were similarly diluted starting at 100 and 225 μg/mL, respectively. Five μL were added per well and allowed to diffuse at 37° C. for 1.5-2.0 hours. Then 10 mL of molten overlayer agarose were added and the plates were incubated inverted at 37° C. overnight. Plates were stained with a dilute Coomassie solution, inhibition zones were measured with calipers and net areas were calculated, then converted to pmol values by PROBIT analysis. The results of a representative experiment are shown in FIG. 2A for the SLU-1 strain and FIG. 2B for the SLU-2G strain. In FIGS. 2A and 2B, the fungicidal activity is represented for XMP.13 as open circles; for XMP.37 as closed circles; for XMP.97 as open triangles; for XMP.127 as closed triangles; for amphotericin B as open squares; and for nystatin as closed squares. The pmol for a 30 mm^2 zone of inhibition were calculated to be: for XMP.13, 689 pmol against SLU-1 and 129 pmol against SLU-2G; for XMP.37, 231 pmol against SLU-1 and 75 pmol against SLU-2G; for XMP.97, 670 pmol against SLU-1 and 161 pmol against SLU-2G; for XMP.127, 935 pmol against SLU-1 and 116 pmol against SLU-2G; for amphotericin B, 36 pmol against SLU-1 and >541 pmol for SLU-2G; and for nysttin, 98 pmol against SLU-1 and >1,215 pmol against SLU-2G.

[6] = tested on: Candida albicans SLU-2G amphotericin B-resistant strain; assay: Radial diffusion assay (Example 3), amphotericin B-resistant strain; assay type: cell-based; settings: FIG. 2B
Description: Domain III derived peptides were tested for their fungicidal activity on amphotericin resistant Candida. Resistant colonies of Candida were isolated using a gradient plate technique. A slanted Sabouraud dextrose agar plate was poured and allowed to harden. The plate was made level and additional agar supplemented with nystatin (Sigma, St. Louis, Mo., cat. no. N-3503) at a concentration of 10 μg/mL was poured. Cells from the CA-1 colony of Candida albicans SLU-1 strain described in Example 2 (10^7 cells in a volume of 100 μL) were spread over the plate and incubated at […] overnight.
as §4, with “determination.” for “determination. One OD570 for SLU-1 cells was 3×10^7 CFU/mL and for SLU-2G cells was 5×10^6 CFU/mL.”
as §5
Peptides were two-fold serially diluted with DPBS from a starting concentration of approximately 1 mg/mL. […] Five μL were added per well and allowed to diffuse at 37° C. for 1.5-2.0 hours. Then 10 mL of molten overlayer agarose were added and the plates were incubated inverted at 37° C. overnight. Plates were stained with a dilute Coomassie solution, inhibition zones were measured with calipers and net areas were calculated, then converted to pmol values by PROBIT analysis.

[7] = Serum stability, anti-fungal activity after serum incubation by radial diffusion bioassay; assay type: in vitro ADME, rat or human serum; settings: Activity in Serum t ½ (hr.)
Description: as §1, §2, §3

With `CC[C@H](C)[C@H](NC(=O)[C@H](CC(C)C)NC(=O)[C@@H](Cc1c[nH]c2ccccc12)NC(=O)[C@H](N)CCCCN)C(=O)N[C@@H](CCC(N)=O)C(=O)N[C@@H](CC(C)C)C(=O)N[C@@H](Cc1ccccc1)C(=O)N[C@@H](Cc1c[nH]cn1)C(=O)N[C@H](CCCCN)C(=O)N[C@H](CCCCN)C(N)=O` [XMP.363] the “C. albicans pmol/30 mm^2 zone” value [1] was 1,015 pmol/30 mm^2 zone, the “C. albicans pmol/30 mm^2 zone” value ([1]; listed as XMP.363P′) was 741 pmol/30 mm^2 zone and the half-life at 0.5 mg/mL [2] was 708 min. The “Activity in Serum t ½ (hr.)” value [3] was “indefinite”.
In the case of H-KSKVGWLIQWFHKK-NH2 [XMP.142], the “minimum inhibitory concentration (MIC), lowest concentration required to reduce the optical density at 590 nm to below 0.1” value [4] is reported as 12.5 µg/mL and the “C. albicans pmol/30 mm^2 zone” value [1] is reported as 1244 pmol/30 mm^2 zone.
With `C[C@@H]1[C@H](O)[C@@H](C)/C=C/C=C/CC/C=C/C=C/C=C/C=C/C(O[C@H]2O[C@H](C)[C@@H](O)[C@H](N)[C@@H]2O)CC2O[C@](O)(CC(O)C(O)CCC(O)CC(O)CC(O)CC(=O)O[C@H]1C)CC(O)C2C(=O)O` (stereo partly drawn) [nystatin, reference compound] the “pmol for a 30 mm^2 zone of inhibition against SLU-1” value [5] was 98 pmol and the “pmol for a 30 mm^2 zone of inhibition against SLU-2G” value [6] was > 1,215 pmol.
In the case of `CC[C@@H](C)[C@@H](NC(=O)[C@@H](C)NC(=O)[C@@H](Cc1c[nH]c2ccccc12)NC(=O)[C@@H](CCCCN)NC(=O)[C@H](N)CCCCN)C(=O)N[C@H](CCC(N)=O)C(=O)N[C@H](CC(C)C)C(=O)N[C@H](CCCCN)C(=O)N[C@H](CCCCN)C(N)=O` [XMP.375] (H-[dK][dK][dW][dA][dI][dQ][dL][dK][dK]-NH2), the “C. albicans pmol/30 mm^2 zone” value [1] is reported as 123 pmol/30 mm^2 zone, the “HPLC Peptide in Serum t ½ (hr.)” value [2] is reported as “indefinite” and the “Activity in Serum t ½ (hr.)” value [3] is reported as “indefinite”.
With H-KSKVKFLIQLFHKK-NH2 [XMP.138] the “minimum inhibitory concentration (MIC), lowest concentration required to reduce the optical density at 590 nm to below 0.1” value [4] was 3.13 µg/mL and the “C. albicans pmol/30 mm^2 zone” value [1] was 257 pmol/30 mm^2 zone.
With `CC[C@@H](C)[C@@H](NC(=O)[C@@H](CCC(N)=O)NC(=O)[C@@H](CC(C)C)NC(=O)[C@H](N)CCCCN)C(=O)N[C@H](CC(C)C)C(=O)N[C@H](Cc1c[nH]c2ccccc12)C(=O)N[C@H](CCCCN)C(=O)N[C@H](CCCCN)C(N)=O` [XMP.374] the “C. albicans pmol/30 mm^2 zone” value [1] was 198 pmol/30 mm^2 zone, the “HPLC Peptide in Serum t ½ (hr.)” value [2] was “indefinite” and the “Activity in Serum t ½ (hr.)” value [3] was “indefinite”.
In the case of `CC[C@H](C)[C@H](NC(=O)[C@H](CC(C)C)NC(=O)[C@@H](Cc1c[nH]c2ccccc12)NC(=O)[C@@H](CCCCN)NC(C)=O)C(=O)N[C@@H](CCC(N)=O)C(=O)N[C@@H](CC(C)C)C(=O)N[C@@H](Cc1ccccc1)C(=O)N[C@@H](Cc1c[nH]cn1)C(=O)N[C@H](CCCCN)C(=O)N[C@H](CCCCN)C(N)=O` [XMP.364], the “C. albicans pmol/30 mm^2 zone” value [1] is reported as 1,523 pmol/30 mm^2 zone, the half-life at 0.5 mg/mL [2] is reported as 1500 min and the “Activity in Serum t ½ (hr.)” value [3] is reported as “indefinite”.
With H-KSKVGYLIQLFHKK-NH2 [XMP.139] the “minimum inhibitory concentration (MIC), lowest concentration required to reduce the optical density at 590 nm to below 0.1” value [4] was 6.25 µg/mL, the “C. albicans pmol/30 mm^2 zone” value [1] was 323 pmol/30 mm^2 zone and the half-life at 0.5 mg/mL [7] was 636 min.
In the case of `CC[C@H](C)[C@H](NC(=O)[C@H](CC(C)C)NC(=O)[C@H](Cc1c[nH]c2ccccc12)NC(=O)CNC(=O)[C@@H](NC(=O)[C@H](CCCCN)NC(=O)[C@H](CO)NC(=O)[C@@H](N)CCCCN)C(C)C)C(=O)N[C@@H](CCC(N)=O)C(=O)N[C@@H](Cc1cccc2ccccc12)C(=O)N[C@@H](Cc1ccccc1)C(=O)N[C@@H](Cc1c[nH]cn1)C(=O)N[C@@H](CCCCN)C(=O)N[C@@H](CCCCN)C(N)=O` [XMP.143] (H-KSKVGWLIQ[1Nal]FHKK-NH2), the “minimum inhibitory concentration (MIC), lowest concentration required to reduce the optical density at 590 nm to below 0.1” value [4] is reported as 25.0 µg/mL (≈ 13.9 µM) and the “C. albicans pmol/30 mm^2 zone” value [1] is reported as >2839 pmol/30 mm^2 zone.
